Results on one compound are retold here after doi:10.1101/659573v1 (bioRxiv, 2019).

The data set relates to mucin. Kind of data set: Bulk diffusion of FITC-peptides and fluorescein salt in mucin. In kind it is in vitro ADME. The conditions noted are these: DPBS/Dmucin.

Regarding `O=C([O-])c1ccccc1-c1c2ccc(=O)cc-2oc2cc([O-])ccc12.[Na+].[Na+]` [Fluorescein salt, fluorescein sodium salt], the “fold decreased diffusion in mucin compared to saline” value is reported as 3 fold.
